Data reported in patent US6890727B2, “Diagnostic assay for Alzheimer's disease: assessment of Aβ abnormalities” (The General Hospital Corporation, priority 1994, dated 2005).
“Also recorded” adds a separate entry of the source.

What was measured:
[1] = Clinical study of oral zinc supplementation: cognition and plasma APP levels; type: in vivo, human
Experimental: The cerebral cortex, and especially the hippocampus, contains the highest concentrations of zinc in the body (C. J. Frederickson, M. A. Klitenick, W. I. Manton, J. B. Kirkpatrick, Brain Res. 273:335 (1983)), and is exposed to extreme fluctuations of extracellular zinc levels (0.15 to 300 μM, C. J. Frederickson, Int. Rev. Neurobiol. 31:145 (1989)), e.g. during synaptic transmission (S. Y. Assaf and S.-H. Chung, Nature 308:734 (1984); G. A. Howell, M. G. Welch, C. J. Frederickson, Nature 308:736 (1984)). The cortical vasculature contains an intraluminal zinc concentration of 20 μM (I. J. T. Davies, M. Musa, T. L. Dormandy, J. Clin. Pathol. 21:359 (1968)), but the perivascular interstitial zinc concentration is 0.15/μM (C. J. Frederickson, Int. Rev. Neurobiol. 31:145 (1989)). Both sites of high zinc concentration gradients are severely and consistently affected by the pathological lesions of AD (B. T. Hyman, G. W. Van Hoesen, L. J. Kroner, A. R. Damasio, Ann. Neurol. 20:472 (1986); G. G. Glenner and C. W. Wong, Biochem. Biophys. Res. Commun. 120:885 (1984)). […] Additional evidence for altered cerebral zinc metabolism in AD include decreased temporal lobe zinc levels (D. Wenstrup, W. D. Ehmann, W. R. Markesbery, Brain Res. 533:125 (1990); J. Constantinidis, Encephale 16:231 (1990); F. M. Corrigan, G. P. Reynolds, N. I. Ward, Biometals 6:149 (1993)), elevated (80%) CSF levels (C. O. Hershey et al, Neurology 33:1350 (1983)), an increase in extracellular Zn^2+-metalloproteinase activities in AD hippocampus (J. R. Backstrom, C. A. Miller, Z. A. Tökés, J. Neurochem. 58:983 (1992)), and decreased levels of astrocytic growth-inhibitory factor, a metallothionein-like protein which chelates zinc (Y. Uchida, K. Takio, K. Titani, Y. Ihara, M. Tomonaga, Neuron 7:337 (1991)). Recently, a clinical study assayed the effects of oral zinc supplementation (6.7-fold the recommended daily allowance, a dose commonly found in nutritional supplements) upon cognition and plasma APP levels in AD subjects and age-matched controls. […]

[2] = target: T1, Aβ (Homo sapiens, UniProt P05067); test: G50 gel filtration chromatography of Aβ in presence of metal ions or EDTA; details: 25 μM total metal ion
T1 construct: purchased Sigma; Bachem (results also replicated with peptide from the Keck Laboratory, Yale); host or cells: chemical synthesis
T1 sequence (P05067 672-711): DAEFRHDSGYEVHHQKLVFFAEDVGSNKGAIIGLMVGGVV
Experimental: Aβ was stored in aliquots of 0.52 mg/ml in water at −20° C., then kept at 4° C. when thawed. Reagents were mixed without vortex mixing. The incubated Aβ was directly applied to a G50 SF (Pharmacia, Uppsala, Sweden) column (Bio-Rad Econo-Column, 30×0.7 cm) pre-equilibrated with metal salt solution or EDTA (50 μM) in TBS at 20° C. and eluted at 8 ml/h (Wiz peristaltic pump, Isco, Lincoln, Nebr.). Absorbance was measured at 254 and 214 nm (Type 6 optical unit, Isco). The amount of Aβ eluting at various peaks was estimated from the area under the curve. […] Because the sample eluted in a volume of approximately 15 ml, the average concentration of the peptide on the column was 0.8 μM.
To study the effects of protein blocking upon adsorption of β to the chromatography column, a Sephadex G50 SF column which had been characterized previously for Aβ behavior was eluted with 3% bovine serum albumin (BSA) in TBS (50 ml) and equilibrated with non-BSA-containing buffer, subsequent to repeating the Aβ experiments.
The elution points of molecular mass standards and relative assignments of Aβ peak elutions are indicated. Mass standards were blue dextran (2×10^6 kDa, V0=void volume), BSA (66 kDa), carbonic anhydrase (29 kDa), cytochrome c (12.4 kDa), and aprotinin (6.5 kDa). The mass of Aβ is 4.3 kDa. […] Data for experiments performed in the presence of copper were taken from 214 nm readings and corrected for comparison.

For `[Zn+2]` [Zn^2+, zinc], the “drop in Mini-Mental State Examination scores” value ([1]; AD group, after four days of oral zinc supplementation) was 31%, the “effect on cognition in AD subjects” value ([1]; oral, 6.7-fold the recommended daily allowance) was “acute decline in cognition; also recorded: acutely adverse effect on cognition” and the “effect on age-matched control subjects” value ([1]; same conditions) was “remained unaffected”. For the same compound, the “Aβ applied to the column that is eluted” value [2] was < 20%.
